In patent publication US20130245081A1, “Compositions and Methods for Treating Amyotrophic Lateral Sclerosis” (priority 2009, published 2013):
Several values for one entry are separate records, joined by “and”; a condition that tells them apart may be missing. Equal entries are not always repeated. Marks after values point to notes of the source that are not given here.

Legend:
patients with ALS = assay: Part 2: 4-week single-blind placebo washout period (withdrawal effects)
[1] = 50 mg during Part 1, placebo washout period
[2] = 150 mg during Part 1, placebo washout period
[3] = 300 mg during Part 1, placebo washout period

CCCN[C@@H]1CCc2nc(N)sc2C1 [dexpramipexole, (6R)-2-amino-4,5,6,7-tetrahydro-6-(propylamino)benzothiazole]
Neutrophil Count, Mean (SD) (patients with ALS; 50 mg during Part 1, Baseline (Part 1: Week 12)): 4.539 (1.3112) ×10^3/μL
Neutrophil Count, Mean (SD) (patients with ALS; 50 mg during Part 1, Part 2: Week 4 (end of placebo washout)): 4.470 (1.3436) ×10^3/μL
ALS-related TEAE: Disease progression (patients with ALS; [1]): 1 (5%) N (%)
ALS-related TEAE: Dyspnoea (patients with ALS; [1]): 1 (5%) N (%)
ALS-related TEAE: Fall (patients with ALS; [1]): 2 (9%) N (%)
ALS-related TEAE: General Disorders and Administration Site Conditions (patients with ALS; [1]): 2 (9%) N (%)
ALS-related TEAE: Injury, Poisoning and Procedural Complications (patients with ALS; [1]): 2 (9%) N (%)
ALS-related TEAE: Muscle spasms (patients with ALS; [1]): 1 (5%) N (%)
ALS-related TEAE: Muscular weakness (patients with ALS; [1]): 4 (18%) N (%)
ALS-related TEAE: Musculoskeletal and Connective Tissue Disorders (patients with ALS; [1]): 4 (18%) N (%)
ALS-related TEAE: Respiratory, Thoracic and Mediastinal Disorders (patients with ALS; [1]): 1 (5%) N (%)
Neutrophil Count, Mean Δ (SD) from baseline to Week 4 (patients with ALS; [1]): −0.022 (0.7157) ×10^3/μL
Number of TEAEs (patients with ALS; [1]): 18
Number of serious TEAEs (patients with ALS; [1]): 2
Number of severe TEAEs (patients with ALS; [1]): 2
Number of treatment-related TEAEs (patients with ALS; [1]): 2
Subjects with a TEAE with action taken of study drug discontinued (patients with ALS; [1]): 0 N (%)
Subjects with ≧1 ALS-related TEAE (patients with ALS; [1]): 7 (32%) N (%)
TEAE: Anxiety (patients with ALS; [1]): 1 (5%) N (%)
TEAE: Back pain (patients with ALS; [1]): 2 (9%) N (%)
TEAE: Constipation (patients with ALS; [1]): 0 N (%)
TEAE: Cough (patients with ALS; [1]): 0 N (%)
TEAE: Diarrhoea (patients with ALS; [1]): 0 N (%)
TEAE: Dyspnoea (patients with ALS; [1]): 1 (5%) N (%)
TEAE: Fall (patients with ALS; [1]): 2 (9%) N (%)
TEAE: Gastrointestinal Disorders (patients with ALS; [1]): 0 N (%)
TEAE: General Disorders and Administration Site Conditions (patients with ALS; [1]): 2 (9%) N (%)
TEAE: Injury, Poisoning and Procedural Complications (patients with ALS; [1]): 2 (9%) N (%)
TEAE: Muscle spasms (patients with ALS; [1]): 1 (5%) N (%)
TEAE: Muscular weakness (patients with ALS; [1]): 4 (18%) N (%)
TEAE: Musculoskeletal and Connective Tissue Disorders (patients with ALS; [1]): 6 (27%) N (%)
TEAE: Nausea (patients with ALS; [1]): 0 N (%)
TEAE: Post lumbar puncture syndrome (patients with ALS; [1]): 0 N (%)
TEAE: Psychiatric Disorders (patients with ALS; [1]): 1 (5%) N (%)
TEAE: Pyrexia (patients with ALS; [1]): 1 (5%) N (%)
TEAE: Respiratory, Thoracic and Mediastinal Disorders (patients with ALS; [1]): 1 (5%) N (%)
mean change from baseline in ALSFRS-R score over 4 weeks (patients with ALS; [1]): −0.7
mean change from baseline in VC over 4 weeks (patients with ALS; [1]): −2.9%
serious TEAE: Disease progression (patients with ALS; [1]): 1 (5%)^a N (%)
serious TEAE: Dyspnoea (patients with ALS; [1]): 1 (5%)^a N (%)
serious TEAE: General Disorders and Administration Site Conditions (patients with ALS; [1]): 1 (5%) N (%)
serious TEAE: Renal and Urinary Disorders (patients with ALS; [1]): 0 N (%)
serious TEAE: Respiratory, Thoracic and Mediastinal Disorders (patients with ALS; [1]): 1 (5%) N (%)
serious TEAE: Urethral obstruction (patients with ALS; [1]): 0 N (%)
serious TEAE: Urinary retention (patients with ALS; [1]): 0 N (%)
≧1 TEAE (patients with ALS; [1]): 9 (41%) N (%)
≧1 TEAE with an outcome of death (patients with ALS; [1]): 2 N (%) and 2 (9%) N (%)
≧1 serious TEAE (including death) (patients with ALS; [1]): 2 (9%) N (%)
≧1 serious treatment-related TEAE (patients with ALS; [1]): 0 N (%)
≧1 severe TEAE (patients with ALS; [1]): 2 (9%) N (%)
≧1 treatment-related TEAE (patients with ALS; [1]): 2 (9%) N (%)
Neutrophil Count, Mean (SD) (patients with ALS; 150 mg during Part 1, Baseline (Part 1: Week 12)): 3.931 (1.4130) ×10^3/μL
Neutrophil Count, Mean (SD) (patients with ALS; 150 mg during Part 1, Part 2: Week 4 (end of placebo washout)): 4.753 (1.5327) ×10^3/μL
ALS-related TEAE: Disease progression (patients with ALS; [2]): 0 N (%)
ALS-related TEAE: Dyspnoea (patients with ALS; [2]): 0 N (%)
ALS-related TEAE: Fall (patients with ALS; [2]): 3 (12%) N (%)
ALS-related TEAE: General Disorders and Administration Site Conditions (patients with ALS; [2]): 0 N (%)
ALS-related TEAE: Injury, Poisoning and Procedural Complications (patients with ALS; [2]): 3 (12%) N (%)
ALS-related TEAE: Muscle spasms (patients with ALS; [2]): 1 (4%) N (%)
ALS-related TEAE: Muscular weakness (patients with ALS; [2]): 1 (4%) N (%)
ALS-related TEAE: Musculoskeletal and Connective Tissue Disorders (patients with ALS; [2]): 2 (8%) N (%)
ALS-related TEAE: Respiratory, Thoracic and Mediastinal Disorders (patients with ALS; [2]): 1 (4%) N (%)
Neutrophil Count, Mean Δ (SD) from baseline to Week 4 (patients with ALS; [2]): 0.841 (1.1854) ×10^3/μL
Number of TEAEs (patients with ALS; [2]): 29
Number of serious TEAEs (patients with ALS; [2]): 0
Number of severe TEAEs (patients with ALS; [2]): 0
Number of treatment-related TEAEs (patients with ALS; [2]): 5
Subjects with a TEAE with action taken of study drug discontinued (patients with ALS; [2]): 0 N (%)
Subjects with ≧1 ALS-related TEAE (patients with ALS; [2]): 7 (28%) N (%)
TEAE: Anxiety (patients with ALS; [2]): 0 N (%)
TEAE: Back pain (patients with ALS; [2]): 0 N (%)
TEAE: Constipation (patients with ALS; [2]): 1 (4%) N (%)
TEAE: Cough (patients with ALS; [2]): 2 (8%) N (%)
TEAE: Diarrhoea (patients with ALS; [2]): 2 (8%) N (%)
TEAE: Dyspnoea (patients with ALS; [2]): 0 N (%)
TEAE: Fall (patients with ALS; [2]): 3 (12%) N (%)
TEAE: Gastrointestinal Disorders (patients with ALS; [2]): 5 (20%) N (%)
TEAE: General Disorders and Administration Site Conditions (patients with ALS; [2]): 1 (4%) N (%)
TEAE: Injury, Poisoning and Procedural Complications (patients with ALS; [2]): 4 (16%) N (%)
TEAE: Muscle spasms (patients with ALS; [2]): 1 (4%) N (%)
TEAE: Muscular weakness (patients with ALS; [2]): 1 (4%) N (%)
TEAE: Musculoskeletal and Connective Tissue Disorders (patients with ALS; [2]): 3 (12%) N (%)
TEAE: Nausea (patients with ALS; [2]): 1 (4%) N (%)
TEAE: Post lumbar puncture syndrome (patients with ALS; [2]): 1 (4%) N (%)
TEAE: Psychiatric Disorders (patients with ALS; [2]): 2 (8%) N (%)
TEAE: Pyrexia (patients with ALS; [2]): 0 N (%)
TEAE: Respiratory, Thoracic and Mediastinal Disorders (patients with ALS; [2]): 2 (8%) N (%)
mean change from baseline in ALSFRS-R score over 4 weeks (patients with ALS; [2]): −1.0
mean change from baseline in VC over 4 weeks (patients with ALS; [2]): −1.7%
serious TEAE: Disease progression (patients with ALS; [2]): 0 N (%)
serious TEAE: Dyspnoea (patients with ALS; [2]): 0 N (%)
serious TEAE: General Disorders and Administration Site Conditions (patients with ALS; [2]): 0 N (%)
serious TEAE: Renal and Urinary Disorders (patients with ALS; [2]): 0 N (%)
serious TEAE: Respiratory, Thoracic and Mediastinal Disorders (patients with ALS; [2]): 0 N (%)
serious TEAE: Urethral obstruction (patients with ALS; [2]): 0 N (%)
serious TEAE: Urinary retention (patients with ALS; [2]): 0 N (%)
≧1 TEAE (patients with ALS; [2]): 13 (52%) N (%)
≧1 TEAE with an outcome of death (patients with ALS; [2]): 0 N (%)
≧1 serious TEAE (including death) (patients with ALS; [2]): 0 N (%)
≧1 serious treatment-related TEAE (patients with ALS; [2]): 0 N (%)
≧1 severe TEAE (patients with ALS; [2]): 0 N (%)
≧1 treatment-related TEAE (patients with ALS; [2]): 2 (8%) N (%)
Neutrophil Count, Mean (SD) (patients with ALS; 300 mg during Part 1, Baseline (Part 1: Week 12)): 3.905 (1.9377) ×10^3/μL
Neutrophil Count, Mean (SD) (patients with ALS; 300 mg during Part 1, Part 2: Week 4 (end of placebo washout)): 4.112 (1.1979) ×10^3/μL
ALS-related TEAE: Disease progression (patients with ALS; [3]): 0 N (%)
ALS-related TEAE: Dyspnoea (patients with ALS; [3]): 1 (4%) N (%)
ALS-related TEAE: Fall (patients with ALS; [3]): 2 (8%) N (%)
ALS-related TEAE: General Disorders and Administration Site Conditions (patients with ALS; [3]): 0 N (%)
ALS-related TEAE: Injury, Poisoning and Procedural Complications (patients with ALS; [3]): 2 (8%) N (%)
ALS-related TEAE: Muscle spasms (patients with ALS; [3]): 1 (4%) N (%)
ALS-related TEAE: Muscular weakness (patients with ALS; [3]): 0 N (%)
ALS-related TEAE: Musculoskeletal and Connective Tissue Disorders (patients with ALS; [3]): 1 (4%) N (%)
ALS-related TEAE: Respiratory, Thoracic and Mediastinal Disorders (patients with ALS; [3]): 1 (4%) N (%)
Neutrophil Count, Mean Δ (SD) from baseline to Week 4 (patients with ALS; [3]): 0.130 (1.3502) ×10^3/μL
Number of TEAEs (patients with ALS; [3]): 46
Number of serious TEAEs (patients with ALS; [3]): 1
Number of severe TEAEs (patients with ALS; [3]): 1
Number of treatment-related TEAEs (patients with ALS; [3]): 3
Subjects with a TEAE with action taken of study drug discontinued (patients with ALS; [3]): 1 (4%)^b N (%)
Subjects with ≧1 ALS-related TEAE (patients with ALS; [3]): 5 (21%) N (%)
TEAE: Anxiety (patients with ALS; [3]): 0 N (%)
TEAE: Back pain (patients with ALS; [3]): 1 (4%) N (%)
TEAE: Constipation (patients with ALS; [3]): 3 (13%) N (%)
TEAE: Cough (patients with ALS; [3]): 0 N (%)
TEAE: Diarrhoea (patients with ALS; [3]): 1 (4%) N (%)
TEAE: Dyspnoea (patients with ALS; [3]): 1 (4%) N (%)
TEAE: Fall (patients with ALS; [3]): 3 (13%) N (%)
TEAE: Gastrointestinal Disorders (patients with ALS; [3]): 3 (13%) N (%)
TEAE: General Disorders and Administration Site Conditions (patients with ALS; [3]): 3 (13%) N (%)
TEAE: Injury, Poisoning and Procedural Complications (patients with ALS; [3]): 6 (25%) N (%)
TEAE: Muscle spasms (patients with ALS; [3]): 1 (4%) N (%)
TEAE: Muscular weakness (patients with ALS; [3]): 0 N (%)
TEAE: Musculoskeletal and Connective Tissue Disorders (patients with ALS; [3]): 2 (8%) N (%)
TEAE: Nausea (patients with ALS; [3]): 2 (8%) N (%)
TEAE: Post lumbar puncture syndrome (patients with ALS; [3]): 1 (4%) N (%)
TEAE: Psychiatric Disorders (patients with ALS; [3]): 0 N (%)
TEAE: Pyrexia (patients with ALS; [3]): 2 (8%) N (%)
TEAE: Respiratory, Thoracic and Mediastinal Disorders (patients with ALS; [3]): 1 (4%) N (%)
mean change from baseline in ALSFRS-R score over 4 weeks (patients with ALS; [3]): −1.5
mean change from baseline in VC over 4 weeks (patients with ALS; [3]): −2.7%
serious TEAE: Disease progression (patients with ALS; [3]): 0 N (%)
serious TEAE: Dyspnoea (patients with ALS; [3]): 1 (4%) N (%)
serious TEAE: General Disorders and Administration Site Conditions (patients with ALS; [3]): 0 N (%)
serious TEAE: Renal and Urinary Disorders (patients with ALS; [3]): 0 N (%)
serious TEAE: Respiratory, Thoracic and Mediastinal Disorders (patients with ALS; [3]): 1 (4%) N (%)
serious TEAE: Urethral obstruction (patients with ALS; [3]): 0 N (%)
serious TEAE: Urinary retention (patients with ALS; [3]): 0 N (%)
subjects who required a tracheostomy (patients with ALS; [3]): 1 subject
≧1 TEAE (patients with ALS; [3]): 11 (46%) N (%)
≧1 TEAE with an outcome of death (patients with ALS; [3]): 0 N (%)
≧1 serious TEAE (including death) (patients with ALS; [3]): 1 (4%) N (%)
≧1 serious treatment-related TEAE (patients with ALS; [3]): 0 N (%)
≧1 severe TEAE (patients with ALS; [3]): 1 (4%) N (%)
≧1 treatment-related TEAE (patients with ALS; [3]): 2 (8%) N (%)
functional affinity difference between pramipexole and dexpramipexole (dopamine receptor): 10,000-20,000 fold
